Assays:
[1] = test system: testosterone production from H295R cells; test: cells; format: cell-based, human; conditions: for inhibition of testosterone production (in words) / IC50: H295R cells; for IC50: Homo sapiens, NCI-H295R, 48 hours incubation, read-out: Testosterone IC50; for Selectivity ratio for aldosterone compared with testosterone: testosterone IC50 (H295R) relative to aldosterone IC50 (hcyp11B2)
Procedure: (§1) The human adrenocarcinoma cell line H295R is used to monitor the production of testosterone and estradiol in vitro. […] Various concentrations of test compounds in 1:3 dilution increments are added to the cell culture medium. After incubation for 48 hours, 100 μl culture medium is collected and d5-estradiol and d3-testosterone are added as ISs for estradiol and testosterone respectively.
(§2) An equal volume of sodium carbonate/sodium bicarbonate buffer (0.5 mol/L, pH 9.4) is added to the samples followed by freshly prepared dansyl chloride solution (50 μl, 20 mg/mL). Samples are mixed and incubated for 60 min at 60° C. The samples are then extracted 3× with EtOAc ([…]) using the FX, combining the organic layers in a new deep-well 96-well plate. The solvent is then dried in a GeneVac HT-4 or under nitrogen. The FX is used to reconstitute the samples in 50% MeOH/water ([…]) and the plates are heat-sealed.
(§3) A 40 μl aliquot of the sample is injected and a gradient from 20-100% MeOH in 0.95 min is initiated. An ABI QTRAP 4000 tandem mass spectrometer is used for MS/MS analysis in the positive ion mode. […] These peaks are separately integrated to give the peak areas. The area ratios of testosterone/IS and estradiol/IS are used to determine testosterone and estradiol concentrations by comparison to their respective standard curves. The detection limits for testosterone and estradiol are 0.1 ng/mL and 0.01 ng/mL respectively.

[2] = test system: estradiol production from H295R cells; test: cells; format: cell-based, human; conditions: for inhibition of estradiol production (in words) / IC50: H295R cells; for IC50: Homo sapiens, NCI-H295R, 48 hours incubation, read-out: Estradiol IC50; for Selectivity ratio for aldosterone compared with estradiol: estradiol IC50 (H295R) relative to aldosterone IC50 (hcyp11B2)
Procedure: as §1, §2, §3

human cyp11B2 = target: T1, human cyp11B2 (Homo sapiens, UniProt P19099); test: Aldosterone Synthase Inhibitor Assay (V79-hcyp11B2 cells, aldosterone by LC-MS); format: cell-based; conditions: aldosterone production from 1 μM DOC, 24 hours incubation, geometric means, separate experiments
T1 construct: expressed in transfected cells
T1 sequence (P19099 25-503): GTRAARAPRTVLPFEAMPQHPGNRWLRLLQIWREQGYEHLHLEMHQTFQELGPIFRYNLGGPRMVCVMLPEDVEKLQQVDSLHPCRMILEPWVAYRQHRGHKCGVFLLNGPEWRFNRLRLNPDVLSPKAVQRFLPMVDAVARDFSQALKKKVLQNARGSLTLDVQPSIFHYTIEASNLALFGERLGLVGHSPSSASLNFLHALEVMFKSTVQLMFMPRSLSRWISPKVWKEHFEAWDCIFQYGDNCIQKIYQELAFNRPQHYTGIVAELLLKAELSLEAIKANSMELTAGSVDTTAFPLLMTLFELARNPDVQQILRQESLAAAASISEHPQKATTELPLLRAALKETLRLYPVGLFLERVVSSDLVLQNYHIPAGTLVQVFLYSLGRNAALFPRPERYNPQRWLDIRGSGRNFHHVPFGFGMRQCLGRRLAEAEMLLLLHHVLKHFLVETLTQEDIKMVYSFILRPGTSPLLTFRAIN
Procedure: Chinese hamster fibroblast cells (V79, ATCC™) constitutively expressing human cyp11B2 are established by transfection with a mammalian expression vector harboring the human cyp11B2 cDNA under CMV promoter and a neomycin antibiotic resistant gene for selection in mammalian cells. V79 cells are transfected in T225 cm^2 flasks with the lipofectamine transfection reagent and the human cyp11B2 cDNA. Positive clones are selected with the selection antibiotic geneticin at 1 mg/mL.
Aldosterone production from transfected cells is initiated by the addition of 1 μM DOC in the medium. After 24 hours incubation, 100 μL cell culture medium is collected and aldosterone concentration in the medium is determined using a liquid chromatography-mass spectrometry (LC-MS) method. […] The wells are then extracted 3× with EtOAc (150 μl) using the FX, combining the organic layers in a new 96-well plate. The solvent is dried in a GeneVac HT-4 or under nitrogen. […] A 25 μl aliquot of the sample is injected and a gradient from 20-100% ACN+0.1% formic acid (FA) in 1 min is initiated. Aldosterone elutes at 0.7 min. Starting conditions are held for 1 minute to re-equilibrate the column. An ABI 4000 tandem mass spectrometer is used for MS/MS analysis in the negative ion mode. […] The area under the peak from each transition is added together to comprise the signal from aldosterone and IS, respectively. […] The detection limit for aldosterone is […].
DOC and various concentrations of test compounds in 1:3 dilution increments are added to the cell culture medium. After 24 hours incubation, 100 μl of cell medium are collected and aldosterone concentration determined as described above. Data are fit to a 4 parameter-fit logistics curve to determine IC50 values.

[3] = target: T2, cynomolgus monkey cyp11B2 (Macaca fascicularis, UniProt A0A2K5UPL9); test: Cynomolgus Monkey Aldosterone Inhibition Assay; format: cell-based; conditions: V79 cells expressing cynomolgus monkey cyp11B2; n=1; read-out: relative IC50, cynomolgus monkey aldosterone inhibition assay
T2 construct: expressed in transfected cells; host or cells: Chinese hamster fibroblast V79 cells
T2 sequence (A0A2K5UPL9 1-503): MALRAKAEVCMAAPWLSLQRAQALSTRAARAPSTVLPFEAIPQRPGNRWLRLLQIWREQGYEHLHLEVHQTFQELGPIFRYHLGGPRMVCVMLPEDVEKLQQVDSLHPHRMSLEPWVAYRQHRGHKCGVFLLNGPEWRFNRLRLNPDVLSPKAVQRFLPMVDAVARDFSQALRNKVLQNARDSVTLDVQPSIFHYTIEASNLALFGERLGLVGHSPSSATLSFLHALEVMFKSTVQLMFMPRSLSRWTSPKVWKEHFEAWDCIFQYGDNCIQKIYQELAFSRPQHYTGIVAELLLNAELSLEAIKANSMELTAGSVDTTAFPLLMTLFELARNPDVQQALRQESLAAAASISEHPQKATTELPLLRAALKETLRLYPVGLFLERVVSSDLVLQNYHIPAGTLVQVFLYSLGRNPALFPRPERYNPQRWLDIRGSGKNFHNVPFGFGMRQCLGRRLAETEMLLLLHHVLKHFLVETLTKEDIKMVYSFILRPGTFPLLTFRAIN
Procedure: Chinese hamster fibroblast cells (V79) constitutively expressing cynomolgus monkey cyp11B2 is established by transfection with a mammalian expression vector harboring the cynomolgus monkey cyp11B2 cDNA. This cell line was used to measure the activity of compounds in inhibiting […] from cynomolgus monkey enzyme. Cell culture condition and aldosterone detection method is performed following the same protocol described in the “Aldosterone inhibition assay”.

[4] = target: cynomolgus monkey cyp11B1 (Macaca fascicularis, UniProt A0A2K5ULY1); test: Cynomolgus Monkey Cortisol Inhibition Assay; format: cell-based; conditions: V79 cells expressing cynomolgus monkey cyp11B1; n=1; read-out: relative IC50, cynomolgus monkey cortisol inhibition assay
Sequence of cynomolgus monkey cyp11B1 (A0A2K5ULY1 entry or part of it): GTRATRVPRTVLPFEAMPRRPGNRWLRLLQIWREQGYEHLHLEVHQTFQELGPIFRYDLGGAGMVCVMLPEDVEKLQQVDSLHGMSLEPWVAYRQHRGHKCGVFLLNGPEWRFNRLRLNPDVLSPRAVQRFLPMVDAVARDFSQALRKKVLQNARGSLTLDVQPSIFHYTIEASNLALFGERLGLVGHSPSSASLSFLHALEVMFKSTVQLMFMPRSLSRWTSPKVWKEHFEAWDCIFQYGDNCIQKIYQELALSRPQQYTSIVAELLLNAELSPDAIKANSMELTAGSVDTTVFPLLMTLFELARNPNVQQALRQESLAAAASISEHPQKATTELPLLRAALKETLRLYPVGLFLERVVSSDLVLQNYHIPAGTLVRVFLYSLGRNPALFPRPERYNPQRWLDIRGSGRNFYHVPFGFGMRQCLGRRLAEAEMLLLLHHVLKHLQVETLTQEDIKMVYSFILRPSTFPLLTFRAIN
Procedure: Chinese hamster fibroblast cells (V79) constitutively expressing cynomolgus monkey cyp11B1 is established by transfection with a mammalian expression vector harboring the cynomolgus monkey cyp11B1 cDNA. This cell line was used to measure the activity of compounds in inhibiting […] from cynomolgus monkey enzyme. Cell culture condition and cortisol detection method is performed following the same protocol described in the “cortisol inhibition assay”.

Q: What does the source list for `CC1(C)CC(c2ccc(C#N)cc2F)c2cn[nH]c21` (single isomer, unassigned; isomer 1) [Example 49, 4-(6,6-Dimethyl-4,5-dihydro-1H-cyclopenta[c]pyrazol-4-yl)-3-fluoro-benzonitrile, isomer 1]?
A: inhibition of testosterone production (in words) [1]: weak inhibition; IC50 [1]: > 30000 nM; Selectivity ratio for aldosterone compared with testosterone [1]: >4285; inhibition of estradiol production (in words) [2]: weak inhibition; IC50 [2]: 22000 nM; Selectivity ratio for aldosterone compared with estradiol [2]: 3143; IC50 (human cyp11B2): 7 nM; IC50 [3]: 4.1 nM; IC50 [4]: 579 nM

Q: How did the “inhibition of testosterone production (in words)” value [1] turn out when `CC1(C)C[C@H](c2ccc(C#N)cc2)c2cn[nH]c21` (single isomer, unassigned) [Example 1] was run?
A: weak inhibition

Q: And the IC50 [1]?
A: > 30000 nM

Q: And the “Selectivity ratio for aldosterone compared with testosterone” value [1]?
A: >6000

Q: What about the “inhibition of estradiol production (in words)” value [2] of the same compound?
A: weak inhibition

Q: What about the IC50 [2] of the same compound?
A: 13200 nM

Q: What about the “Selectivity ratio for aldosterone compared with estradiol” value [2] of the same compound?
A: 2640

Q: And the IC50 (human cyp11B2)?
A: 5 nM

Q: And the IC50 [3]?
A: 2.46 nM

Q: And the IC50 [4]?
A: 209 nM
